Results from patent publication US9932340B2, “Substituted indoles” (AbbVie Inc., priority 2014, dated 2018).

Target: SUV420H1 enzyme (Homo sapiens, UniProt Q4FZB7)
Assay: TR-FRET SAH SUV420H1 enzyme inhibition assay
Format: biochemical
Settings: Histone Peptide H4(8-30)me1 and SAM, overnight at room temp, TR-FRET detection of SAH, read-out: TR-FRET SAH_SUV420H1 IC50
How it was run: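 SUV420H1 (90 nM) preincubated 30 min with compound (3-fold dilutions, 50 to 0.00075 μM), then H4(8-30)me1 peptide 5 nM and SAM 4 nM added, overnight at room temp. SAH product detected by TR-FRET with Tb anti-SAH antibody and Oregon Green-SAH in RIPA buffer, 4 h; IC50 from Hill fit, asymptotes fixed 0-100%.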

Chain of SUV420H1 enzyme (Q4FZB7 whole entry): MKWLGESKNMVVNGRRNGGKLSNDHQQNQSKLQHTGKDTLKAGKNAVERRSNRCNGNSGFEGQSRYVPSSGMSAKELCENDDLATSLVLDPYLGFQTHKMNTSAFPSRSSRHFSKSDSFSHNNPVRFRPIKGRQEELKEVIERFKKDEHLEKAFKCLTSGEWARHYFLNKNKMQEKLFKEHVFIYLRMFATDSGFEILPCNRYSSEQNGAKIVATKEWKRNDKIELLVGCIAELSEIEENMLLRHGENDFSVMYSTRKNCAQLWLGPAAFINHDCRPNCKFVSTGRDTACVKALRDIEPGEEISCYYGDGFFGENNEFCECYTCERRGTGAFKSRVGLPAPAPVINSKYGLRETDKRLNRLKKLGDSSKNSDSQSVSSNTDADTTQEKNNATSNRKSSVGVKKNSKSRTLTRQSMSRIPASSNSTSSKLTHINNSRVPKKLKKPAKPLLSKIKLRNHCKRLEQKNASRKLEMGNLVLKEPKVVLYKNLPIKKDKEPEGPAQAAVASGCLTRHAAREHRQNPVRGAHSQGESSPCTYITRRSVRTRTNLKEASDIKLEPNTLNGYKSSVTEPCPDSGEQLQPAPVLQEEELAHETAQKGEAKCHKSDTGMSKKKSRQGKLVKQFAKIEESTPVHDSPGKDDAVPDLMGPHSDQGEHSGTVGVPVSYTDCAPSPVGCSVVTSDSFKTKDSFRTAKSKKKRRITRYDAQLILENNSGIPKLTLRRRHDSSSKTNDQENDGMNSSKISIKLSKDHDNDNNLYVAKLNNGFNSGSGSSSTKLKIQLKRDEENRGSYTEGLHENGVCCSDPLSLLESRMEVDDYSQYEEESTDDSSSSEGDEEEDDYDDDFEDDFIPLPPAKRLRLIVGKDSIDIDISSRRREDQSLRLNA

SMILES | IC50 [µM]
COc1ccccc1CNC(=O)NCc1cc2cc(Cl)cc(Cn3cnc4c(N)ncnc43)c2[nH]1 [Example 312, 1-({7-[(6-amino-9H-purin-9-yl)methyl]-5-chloro-1H-indol-2-yl}methyl)-3-(2-methoxybenzyl)urea] | > 50
CC(=O)Nc1ccc(C(=O)NCc2cc3cc(Cl)cc(Cn4cnc5c(N)ncnc54)c3[nH]2)cc1 [Example 313, 4-(acetylamino)-N-({7-[(6-amino-9H-purin-9-yl)methyl]-5-chloro-1H-indol-2-yl}methyl)benzamide] | > 50
CC(C)c1ccccc1C(=O)NCc1cc2cc(Cl)cc(Cn3cnc4c(N)ncnc43)c2[nH]1 [Example 314, N-({7-[(6-amino-9H-purin-9-yl)methyl]-5-chloro-1H-indol-2-yl}methyl)-2-(propan-2-yl)benzamide] | 1.93
COc1ccc(CCC(=O)NCc2cc3cc(Cl)cc(Cn4cnc5c(N)ncnc54)c3[nH]2)cc1 [Example 315, N-({7-[(6-amino-9H-purin-9-yl)methyl]-5-chloro-1H-indol-2-yl}methyl)-3-(4-methoxyphenyl)propanamide] | 4.08
COc1cccc(CCC(=O)NCc2cc3cc(Cl)cc(Cn4cnc5c(N)ncnc54)c3[nH]2)c1 [Example 316, N-({7-[(6-amino-9H-purin-9-yl)methyl]-5-chloro-1H-indol-2-yl}methyl)-3-(3-methoxyphenyl)propanamide] | 13
CN(C)c1ccc(CC(=O)NCc2cc3cc(Cl)cc(Cn4cnc5c(N)ncnc54)c3[nH]2)cc1 [Example 317, N-({7-[(6-amino-9H-purin-9-yl)methyl]-5-chloro-1H-indol-2-yl}methyl)-2-[4-(dimethylamino)phenyl]acetamide] | 4.5
Nc1ncnc2c1ncn2Cc1cc(Cl)cc2cc(CNC(=O)N3CCC(c4ccccc4F)C3)[nH]c12 (stereo not shown) [Example 319, N-({7-[(6-amino-9H-purin-9-yl)methyl]-5-chloro-1H-indol-2-yl}methyl)-3-(2-fluorophenyl)pyrrolidine-1-carboxamide] | 3.39
Nc1ncnc2c1ncn2Cc1cc(Cl)cc2cc(CNC(=O)c3ccccc3C(=O)N3CCCC3)[nH]c12 [Example 320, N-({7-[(6-amino-9H-purin-9-yl)methyl]-5-chloro-1H-indol-2-yl}methyl)-2-(pyrrolidin-1-ylcarbonyl)benzamide] | 8.03
Nc1ncnc2c1ncn2Cc1cc(Cl)cc2cc(CNC(=O)c3ccccc3OC3CCOCC3)[nH]c12 [Example 321, N-({7-[(6-amino-9H-purin-9-yl)methyl]-5-chloro-1H-indol-2-yl}methyl)-2-(tetrahydro-2H-pyran-4-yloxy)benzamide] | 8.22
Nc1ncnc2c1ncn2Cc1cc(Cl)cc2cc(CNC(=O)c3ccccc3N3CCCCC3)[nH]c12 [Example 322, N-({7-[(6-amino-9H-purin-9-yl)methyl]-5-chloro-1H-indol-2-yl}methyl)-2-(piperidin-1-yl)benzamide] | 29.9
Nc1ncnc2c1ncn2Cc1cc(Cl)cc2cc(CNCc3cccc(CN4CCCCC4)c3)[nH]c12 [Example 323, 9-{[5-chloro-2-({[3-(piperidin-1-ylmethyl)benzyl]amino}methyl)-1H-indol-7-yl]methyl}-9H-purin-6-amine] | 0.345
Nc1ncnc2c1ncn2Cc1cc(Cl)cc2cc(CNC(=O)c3ccccc3C(=O)N3CCCCC3)[nH]c12 [Example 324, N-({7-[(6-amino-9H-purin-9-yl)methyl]-5-chloro-1H-indol-2-yl}methyl)-2-(piperidin-1-ylcarbonyl)benzamide] | 12.5
Nc1ncnc2c1ncn2Cc1cc(Cl)cc2cc(CNCc3cccc(OCCN4CCCCC4)c3)[nH]c12 [Example 325, 9-({5-chloro-2-[({3-[2-(piperidin-1-yl)ethoxy]benzyl}amino)methyl]-1H-indol-7-yl}methyl)-9H-purin-6-amine] | 3.12
Cc1onc(-c2ccccc2)c1C(=O)NCc1cc2cc(Cl)cc(Cn3cnc4c(N)ncnc43)c2[nH]1 [Example 326, N-({7-[(6-amino-9H-purin-9-yl)methyl]-5-chloro-1H-indol-2-yl}methyl)-5-methyl-3-phenyl-1,2-oxazole-4-carboxamide] | 6.2
Cn1ccnc1-c1ccccc1C(=O)NCc1cc2cc(Cl)cc(Cn3cnc4c(N)ncnc43)c2[nH]1 [Example 327, N-({7-[(6-amino-9H-purin-9-yl)methyl]-5-chloro-1H-indol-2-yl}methyl)-2-(1-methyl-1H-imidazol-2-yl)benzamide] | 5.28
Nc1ncnc2c1ncn2Cc1cc(Cl)cc2cc(CNC(=O)c3ccc4snnc4c3)[nH]c12 [Example 329, N-({7-[(6-amino-9H-purin-9-yl)methyl]-5-chloro-1H-indol-2-yl}methyl)-1,2,3-benzothiadiazole-5-carboxamide] | 0.41
Nc1ncnc2c1ncn2Cc1cc(Cl)cc2cc(CNC(=O)c3ccc4nc[nH]c4n3)[nH]c12 [Example 330, N-({7-[(6-amino-9H-purin-9-yl)methyl]-5-chloro-1H-indol-2-yl}methyl)-3H-imidazo[4,5-b]pyridine-5-carboxamide] | 1.06

SMILES | IC50 [µM]
Nc1ncnc2c1ncn2Cc1cc(Cl)cc2cc(CNC(=O)c3ccc4[nH]nnc4c3)[nH]c12 [Example 331, N-({7-[(6-amino-9H-purin-9-yl)methyl]-5-chloro-1H-indol-2-yl}methyl)-1H-benzotriazole-6-carboxamide] | 2.58
Nc1ncnc2c1ncn2Cc1cc(Cl)cc2cc(CNC(=O)c3ccc4[nH]nnc4c3)[nH]c12 [Example 332, N-({7-[(6-amino-9H-purin-9-yl)methyl]-5-chloro-1H-indol-2-yl}methyl)-1H-benzotriazole-5-carboxamide] | 2.02
Nc1ncnc2c1ncn2Cc1cc(Cl)cc2cc(CNC(=O)c3cnc4[nH]cnc4c3)[nH]c12 [Example 333, N-({7-[(6-amino-9H-purin-9-yl)methyl]-5-chloro-1H-indol-2-yl}methyl)-3H-imidazo[4,5-b]pyridine-6-carboxamide] | 1.7
Nc1ncnc2c1ncn2Cc1cc(Cl)cc2cc(CNC(=O)c3cc4[nH]nnc4cc3F)[nH]c12 [Example 334, N-({7-[(6-amino-9H-purin-9-yl)methyl]-5-chloro-1H-indol-2-yl}methyl)-5-fluoro-1H-benzotriazole-6-carboxamide] | 2.04
Nc1ncnc2c1ncn2Cc1cc(Cl)cc2cc(CNC(=O)c3ccc4ncsc4c3)[nH]c12 [Example 335, N-({7-[(6-amino-9H-purin-9-yl)methyl]-5-chloro-1H-indol-2-yl}methyl)-1,3-benzothiazole-6-carboxamide] | 0.401
Nc1ncnc2c1ncn2Cc1cc(Cl)cc2cc(CNC(=O)c3ccc4scnc4c3)[nH]c12 [Example 336, N-({7-[(6-amino-9H-purin-9-yl)methyl]-5-chloro-1H-indol-2-yl}methyl)-1,3-benzothiazole-5-carboxamide] | 0.431
Nc1ncnc2c1ncn2Cc1cc(Cl)cc2cc(CNC(=O)c3cnc4ccsc4c3)[nH]c12 [Example 337, N-({7-[(6-amino-9H-purin-9-yl)methyl]-5-chloro-1H-indol-2-yl}methyl)thieno[3,2-b]pyridine-6-carboxamide] | 0.0985
Nc1ncnc2c1ncn2Cc1cc(Cl)cc2cc(CNC(=O)c3ccc4ncoc4c3)[nH]c12 [Example 338, N-({7-[(6-amino-9H-purin-9-yl)methyl]-5-chloro-1H-indol-2-yl}methyl)-1,3-benzoxazole-6-carboxamide] | 2.85
Nc1ncnc2c1ncn2Cc1cc(Cl)cc2cc(CNC(=O)c3ccc4ocnc4c3)[nH]c12 [Example 339, N-({7-[(6-amino-9H-purin-9-yl)methyl]-5-chloro-1H-indol-2-yl}methyl)-1,3-benzoxazole-5-carboxamide] | 6.87
Nc1ncnc2c1ncn2Cc1cc(Cl)cc2cc(CNC(=O)c3cnc4ccoc4c3)[nH]c12 [Example 340, N-({7-[(6-amino-9H-purin-9-yl)methyl]-5-chloro-1H-indol-2-yl}methyl)furo[3,2-b]pyridine-6-carboxamide] | 0.807
Nc1ncnc2c1ncn2Cc1cc(Cl)cc2cc(CNC(=O)c3ccc4nc(O)sc4c3)[nH]c12 [Example 341] | 3.03
Nc1ncnc2c1ncn2Cc1cc(Cl)cc2cc(CNC(=O)c3ccc4cn[nH]c4c3)[nH]c12 [Example 342, N-({7-[(6-amino-9H-purin-9-yl)methyl]-5-chloro-1H-indol-2-yl}methyl)-1H-indazole-6-carboxamide] | 0.947
Nc1ncnc2c1ncn2Cc1cc(Cl)cc2cc(CNC(=O)c3ccc4[nH]ccc4n3)[nH]c12 [Example 343, N-({7-[(6-amino-9H-purin-9-yl)methyl]-5-chloro-1H-indol-2-yl}methyl)-1H-pyrrolo[3,2-b]pyridine-5-carboxamide] | 4.82
Nc1ncnc2c1ncn2Cc1cc(Cl)cc2cc(CNC(=O)c3ccc4[nH]ncc4c3)[nH]c12 [Example 346, N-({7-[(6-amino-9H-purin-9-yl)methyl]-5-chloro-1H-indol-2-yl}methyl)-1H-indazole-5-carboxamide] | 4.66
Nc1ncnc2c1ncn2Cc1cc(Cl)cc2cc(CNC(=O)c3cnc4[nH]ccc4c3)[nH]c12 [Example 347, N-({7-[(6-amino-9H-purin-9-yl)methyl]-5-chloro-1H-indol-2-yl}methyl)-1H-pyrrolo[2,3-b]pyridine-5-carboxamide] | 29.1
Nc1ncnc2c1ncn2Cc1cc(Cl)cc2cc(CNC(=O)c3cnc4[nH]ccc4c3Cl)[nH]c12 [Example 348, N-({7-[(6-amino-9H-purin-9-yl)methyl]-5-chloro-1H-indol-2-yl}methyl)-4-chloro-1H-pyrrolo[2,3-b]pyridine-5-carboxamide] | 7.27
Nc1ncnc2c1ncn2Cc1cc(Cl)cc2cc(CNC(=O)c3nc4[nH]ccc4cc3Cl)[nH]c12 [Example 349, N-({7-[(6-amino-9H-purin-9-yl)methyl]-5-chloro-1H-indol-2-yl}methyl)-5-chloro-1H-pyrrolo[2,3-b]pyridine-6-carboxamide] | 8.78
